Patent publication US20210030714A1, “COMPOUNDS FOR USE IN THE TREATMENT OF BRAIN DISEASES” (UNIVERSITA DEGLI STUDI DI ROMA "LA SAPIENZA", priority 2018, published 2021)
“Also recorded” adds a separate entry of the source.

Assays:
[1] = tested on: GL261 murine glioma cells; assay: GL261 cell growth assay (MTT salt); assay type: cell-based; conditions: 5 μM GlaB, in vitro, starting from 48 h of treatment, N=3, p<0.001
Description: The GL261 murine glioma cells (Leibniz-Institute DMSZ, ACC802) are grown in an incubator at 37° C. and 5% CO2 in a culture medium containing D-MEM (GIBCO), 20% fetal bovine serum (GIBCO), antibiotics (100 IU/ml penicillin G, 100 μg/ml streptomycin, 2.5 μg/ml amphotericin B), 2 mM glutamine and 1 mM pyruvate sodium.
GL261 murine glioma cells were seeded in culture medium in 96-well plates (5000 cells/well). After 4 h they were treated with 5 μM GlaB (C. Ingallina, P. M. Costa, F. Ghirga, R. Klippstein, J. T. Wang, S. Berardozzi, N. Hodgins, P. Infante, S. M. Pollard, B. Botta, K. T. Al-Jamal. Polymeric glabrescione B nanocapsules for passive targeting of Hedgehog-dependent tumor therapy in vitro. Nanomedicine, (2017), 12(7), 711-728. DOI: 10.2217/nnm-2016-0388) or the vehicle in which it is dissolved (DMSO) and every 24 h for three days their growth was evaluated using the dehydrogenation method of MTT salt (3-(4,5-dimetiltiazol-2-yl)-2,5-diphenyltetrazolium bromide, Sigma-Aldrich). The MTT salt was added to each well containing culture medium at the concentration of 0.5 mg/ml, and after 2 h of incubation at 37° C., cell growth was measured by measuring the spectrophotometer, at a wavelength of 570 nm, the absorbance values related to the amount of MTT salt transformed into formazan (insoluble violet-colored salt) simultaneously by live control cells and cells treated with GlaB.

[2] = tested on: murine glioma GL261 cells; assay: Orthotopic GL261 glioma in mice, tumor volume (procedure A); assay type: in vivo, mice (C57BL/6); conditions: for tumor volume: every two days, N=7, vehicle ethanol:2-hydroxypropyl-beta-cyclodextrin 1:5
Description: Male wild type (C57BL/6) mice were inoculated with murine glioma cells (GL261, Leibniz-Institute DMSZ, ACC802) at the age of 8 weeks (animals weighing an average weight of 22 g). After being anesthetized by intraperitoneal injection of 50 mg/kg Zoletil anaesthetic (combination of tiletamine hypochloride and zolazepam hypochloride) associated with 10 mg/kg Rompun (xylazine), the animals were subjected to orthotopic injection (subcortical/striatum, […] anteroposterior, −2 mm lateral to the bregma) of GL261 cells (1×10^5 cells per mouse) using a stereotaxic apparatus to accurately and reproducibly reach the right striatal region. The cells, resuspended in 5 μl of phosphate buffer, were injected by the use of a Hamilton syringe connected to the stereotaxic apparatus.
GlaB dissolved in the vehicle constituted by ethanol (Sigma-Aldrich #51976): 2-hydroxypropyl-beta-cyclodextrin (Sigma-Aldrich #C0926) solution (10% (w/v) in H2O) in a 1:5 volume ratio was administered by intraperitoneal injections (ip, 35 mg/kg) and intranasally (in, 4.4 mg/kg), every two days after 7 days from the implantation of tumor cells for a total of 6 days of treatment. Intranasal administration was performed through the so-called “snort delivery”: drops of the medicament were sniffed by the animal, anesthetized with 2.5% Isofluorane, until reaching the upper nasal cavity.
The day after the last administration of GlaB, mice were perfused with phosphate buffer and then 4% PFA and their brain isolated, further fixed and frozen. After about 48 h each frozen brain was cut into subsequent coronal slices, 20 μm thick, collected at 100 μm intervals. The determination of tumor volume was performed by histological staining (hematoxylin and eosin) of the brain slices: the tumor mass is recognizable because it has a darker color compared to the remaining healthy tissue. The tumor volume is calculated through analysis of images obtained under a phase contrast microscope (ECLIPSE Ti-S, Nikon) using commercial software released in the public domain (ImageJ, National Institutes of Health of the United States) able to measure the tumor area in each slice, necessary for volume calculation.

[3] = GlaB brain level concentration by HPLC-ESI-MS after intranasal administration; assay type: in vivo, mice
Description: For HPLC analysis, mice were treated as above and sacrificed two hours post one single nasal administration; brains were collected and frozen (−80° C.) until use.
HPLC analyses were performed on brain samples from mice treated with GlaB/PEG-Cholane. The brain sample (500 mg), previously stored at −80° C. for 24 hours, was homogenized with 1 mL of a Phosphate Buffered Saline solution, PBS, using an ultrasound probe. A solution of ZnSO4 (0.1 M in H2O, 1 mL) and acetonitrile (1 mL) were added to the mixture, which was further homogenized with ultrasound for 15 minutes. Subsequently, the brain homogenate was stirred for 1 hour at room temperature and was then centrifuged at 3000 g for 5 min at T=4° C. The supernatant was collected. The following procedure to obtain a brain extract was repeated twice. Acetonitrile (1 mL) was added to the brain residue, stirred for 30 minutes at room temperature, then centrifuged at 3000 g for 5 min at T=4° C. and the supernatant collected. Brain extracts samples were centrifuged for five minutes at 5000 rpm and 20 μL of supernatant injected into the HPLC without further treatments.
The HPLC chromatographic system used was an UltiMate 3000 RS system (Thermo Fisher Dionex Sunnyvale, Calif.), equipped with an UltiMate 3000 LPG-3400RS Low Pressure Mixing Biocompatible Gradient Pump, an in-line split-loop well plate sampler, a thermostated column ventilated compartment (temperature range: 5-110° C.) and a diode array detector (UltiMate 3000 DAD-3000RS Rapid Separation Diode Array Detector, up to 200 Hz acquisition rate) with a low dispersion 13 μL flow cell. […]
Calibration standards ranged from 0.128 to 8.2 μg/mL for UV curve (y=0.2574x−0.2042, R2=0.9997) with a Limit of Quantitation, LOQ, (defined for a signal-to-noise ratio >10) of 4.1 ng on column, whereas calibration curve ranged 0.128-8.2 μg/ml for MS (y=11176x−1505.9) showing a correlation coefficient (r^2) equal to 0.9991.
A known amount (0.5 μg/mL) of the GlaB analyte (a spike) was added to treated brain sample. The samples and the samples plus spike were then analyzed. […]

- concentration at 2 h ([3]; C57BL/6, mouse, brain, other: nasal administration (intranasal), 1.44 mg/Kg, mice, two hours post one single nasal administration of GlaB/PEG-Cholane, read-out: estimated brain level concentration): 3600 ng/g
- GlaB peak in extract ion chromatogram of brain extract (drug reaches brain) ([3]; intranasally GlaB/PEG-Cholane treated mice vs control PEG-Cholane treated mice): presence of GlaB peak
- GlaB quantified in brain extract, amount on column ([3]; mice, two hours post one single nasal administration of GlaB/PEG-Cholane, HPLC-MS SIM m/z 451): 6 ng on column
SMILES: COc1cc(OC)c2c(=O)c(-c3ccc(OCC=C(C)C)c(OCC=C(C)C)c3)coc2c1 [GlaB, Glabrescione B]
- growth of GL261 tumor cells (MTT absorbance) compared to vehicle (DMSO) [1]: reduce their growth capacity; also recorded: significant reduction
- tumor volume reduction ([2]; intranasal formulation in ethanol:2-hydroxypropyl-beta-cyclodextrin solution (1:5 by volume), 4.4 mg/kg): about 70%
- glioma volume in vivo compared to control solution ([2]; intranasal, 4.4 mg/kg): significantly reduce glioma volume
- tumor volume ([2]; intranasal, 4.4 mg/kg): 0.21 mm³
- glioma volume in vivo compared to control solution ([2]; intraperitoneal, 35 mg/kg): significantly reduce glioma volume
- tumor volume ([2]; intraperitoneal, 35 mg/kg): 0.48 mm³
